For orientation: EC50 means the concentration at which the effect is half-maximal. Usually CC50 stands for the concentration that lowers cell viability or growth by half.

SMILES strings stand for the structures.

For series [1], the system named is HBV replication in HepAD38 cells. As to the kind of experiment: Anti-HBV replication assay in HepAD38 cells (QPCR of extracellular HBV DNA). The class given is cell-based, HBV (genotype D, serotype ayw). The following applies: Hepatitis B virus, 168 h, 7 days incubation, extracellular HBV DNA by QPCR, read-out: Anti-HBV EC50. The protocol: The anti-HBV activity of the Capsid Assembly Modulators (CAMs) was evaluated in a cell based assay utilizing the human hepatoma cell line HepAD38 (Ladner, S K., et al., 1998). HepAD38 cells were derived from the parental line, HepG2, that were stably transfected with a construct containing an HBV genome (genotype D, serotype ayw) under the control of a tetracycline repressible CMV promoter. Upon removal of tetracycline, viral pre-genomic RNA (pgRNA) and mRNAs are expressed and infectious viral particles are assembled and secreted into the culture medium providing a reliable, robust system to measure multiple steps of the HBV life cycle. Disruption of capsid formation results in reduced levels of DNA-containing virus particles that are released into the culture supernatant. To quantify the effect of CAMs on HBV replication, we developed a sensitive QPCR-based assay that measures extracellular HBV DNA levels upon treatment of HepAD38 cells with various concentrations of test compounds.
HepAD38 cells were maintained in DMEM/F12 medium containing 10% FBS, 400 μg/mL G418 and 0.3 μg/mL tetracycline (tet+ media) to maintain repression of HBV replication. To evaluate each compound, HepAD38 cells were seeded into 24-well collagen coated culture plates (Corning BioCoat) at a density of 200,000 cells per well in 1 mL of medium without tetracycline (tet-media) and allowed to adhere overnight at 37° C., 5% CO2 in a humidified incubator. The following day, media was refreshed and a dose range of each compound was prepared by performing 1 log10 serial dilutions in 100% DMSO at 200× the desired assay concentration. Dilutions were then added to the cells resulting in a final dose range of 1 μM to 10 μM and the plates were returned to the incubator. Following 7 days of incubation, culture supernatants were harvested and HBV DNA levels were evaluated by QPCR and compared to the vehicle treated control wells (i.e. DMSO alone).
To quantify HBV DNA levels, cell culture supernatants were diluted 1:10 in sterile, nuclease-free water (Gibco). The diluted supernatants were subsequently added to a PCR master mix containing 1× Roche Light Cycler Master Mix, 0.5 μM forward primer, 0.5 μM reverse primer (Fwd: 5′-[…] (SEQ ID NO 1); Rev: 5′-[…] (SEQ ID NO 2)), 0.2 μM Roche Universal Probe Library Probe 25. The volume was brought to 20 μL with nuclease-free water and amplification of the HBV target sequence was performed using a Roche LightCycler 480 QPCR instrument. PCR extended out to 45 cycles with each cycle consisting of a denaturation step at 95° C. for 10 sec., followed by an annealing step at 60° C. for 10 sec. and a brief extension step at 72° C. for 1 sec.
Extracellular HBV DNA levels, expressed in copies/mL, were determined by comparison to a standard curve (10^2-10^9 copies/mL) using the Roche LightCycler analysis software. These values were subsequently converted to percent inhibition of HBV replication by dividing the HBV DNA levels in the experimental samples with those obtained from the vehicle control (˜1-2×10^5 copies/mL). Potency, expressed as an EC50 (the effective concentration required to inhibit 50% of HBV replication), was calculated from the dose-response curve using a 4-parameter non-linear regression analysis (GraphPad Prism). The nucleoside analog inhibitor entecavir was used as a positive control to validate each assay run. The EC50 value of entecavir in the HepAD38 assay was 0.5 nM, as previously reported in the literature.

The nature of series [2]: In vitro cytotoxicity assay (MTT cell viability) in HepG2 cells. The class given is cell-based, human. The following applies: human. The procedure: To evaluate antiviral selectivity, the cytotoxic activity of each compound was determined using a standard cell viability assay performed on the parental HepG2 cell line. Cell viability was determined by measuring the conversion of 3-(4,5-dimethylthiazol-2-yl)-2,5-diphenyltetrazolium bromide (MTT) to the insoluble formazan salt crystal that occurs in live cells. Briefly, HepG2 cells were seeded in 96-well plates at a density of 20,000 cells per well in EMEM+10% FBS (complete growth medium) and allowed to adhere overnight in a 37° C., 5% CO2 humidified incubator. The next day, test agents were prepared by performing 8 half-log10 serial dilutions in 100% DMSO at 200× the final desired concentration in the assay. Compounds were tested over a range of concentrations from 30 μM to 1.0 nM in the assay. HepG2 cells were incubated in the presence of various concentrations of CAMs for 7 days in a 37° C., 5% CO2 humidified incubator. At the completion of the 7-day incubation period, MTT reagent was added to each well and the mixture was incubated for an additional 3-4 hours. At the completion of the incubation period, all wells were aspirated to remove the culture medium. The formazan crystals were solubilized from the cell monolayers with 100% DMSO. Plates were briefly mixed on an orbital shaker and absorbance was measured at 492 nm using a Perkin-Elmer EnVision multi-label plate reader. All absorbance values were converted to a percentage of the signal obtained from the vehicle treated controls. Absorbance values at 492 nm are directly proportional to the number of viable cells present in the sample. A CC50 value (cytotoxic concentration that results in loss of 50% cell viability) was calculated from the dose-response curve by 4-parameter, non-linear regression analysis using the GraphPad Prism software. The positive control compound, staurosporine, reduced the viability of HepG2 cells in a dose-dependent manner (CC50=100 nM).

As for `Cc1cc(NC(=O)c2c(C)c(C(=O)C(=O)NC3C4CC5CC(C4)CC3C5)n(C)c2C)ccc1F` (stereo not shown) [Example 17, 5-(2-(((1r,3r)-adamantan-2-yl)amino)-2-oxoacetyl)-N-(4-fluoro-3-methylphenyl)-1,2,4-trimethyl-1H-pyrrole-3-carboxamide], in series [1], the concentration giving a half-maximal response (EC50) was under 0.05 µM. Besides, in series [2], the cytotoxic concentration (CC50) at 7 days is 0.5 to 4.99 µM.
For `Cc1cc(NC(=O)c2c(C)c(C(=O)C(=O)NC34CC5CC(CC3C5)C4)n(C)c2C)ccc1F` [Example 18, N-(4-fluoro-3-methylphenyl)-5-(2-(((2R,3as,5S,6as)-hexahydro-2,5-methanopentalen-3a(1H)-yl)amino)-2-oxoacetyl)-1,2,4-trimethyl-1H-pyrrole-3-carboxamide], in that order: under 0.05 µM and over 30 µM.
For `Cc1cc(NC(=O)c2c(C)c(C(=O)C(=O)NC3CCc4nc(N)sc4C3)n(C)c2C)ccc1F` (stereo not shown) [Example 20, 5-(2-((2-amino-4,5,6,7-tetrahydrobenzo[d]thiazol-6-yl)amino)-2-oxoacetyl)-N-(4-fluoro-3-methylphenyl)-1,2,4-trimethyl-1H-pyrrole-3-carboxamide], in that order: under 0.05 µM and 0.5 to 4.99 µM.
For `Cn1cc(C(=O)Nc2ccc(F)c(Cl)c2)cc1C(=O)C(=O)NOC(C)(C)C` [Example 21, 5-(2-(tert-butoxyamino)-2-oxoacetyl)-N-(3-chloro-4-fluorophenyl)-1-methyl-1H-pyrrole-3-carboxamide], the EC50 in series [1] was 0.05 to 0.499 µM. In series [2], this compound had a cytotoxic concentration (CC50) at 7 days of over 30 µM.
For `Cc1cc(NC(=O)c2c(C)c(C(=O)C(=O)NC(C)(C)C(=O)OC(C)(C)C)n(C)c2C)ccc1F` [Example 22, tert-butyl 2-(2-(4-((4-fluoro-3-methylphenyl)carbamoyl)-1,3,5-trimethyl-1H-pyrrol-2-yl)-2-oxoacetamido)-2-methylpropanoate], in that order: under 0.05 µM and over 30 µM.
For `Cc1cc(NC(=O)c2c(C)c(C(=O)C(=O)N[C@H](C(=O)OC(C)(C)C)C(C)(C)C)n(C)c2C)ccc1F` [Example 23, tert-butyl (S)-2-(2-(4-((4-fluoro-3-methylphenyl)carbamoyl)-1,3,5-trimethyl-1H-pyrrol-2-yl)-2-oxoacetamido)-3,3-dimethylbutanoate], in that order: 0.05 to 0.499 µM and over 30 µM.
For `COC(=O)[C@H](NC(=O)C(=O)c1c(C)c(C(=O)Nc2ccc(F)c(C)c2)c(C)n1C)C(C)(C)C` [Example 24, methyl (R)-2-(2-(4-((4-fluoro-3-methylphenyl)carbamoyl)-1,3,5-trimethyl-1H-pyrrol-2-yl)-2-oxoacetamido)-3,3-dimethylbutanoate], in that order: under 0.05 µM and over 30 µM.
As for `CCOC(=O)[C@H](CO)NC(=O)C(=O)c1c(C)c(C(=O)Nc2ccc(F)c(C)c2)c(C)n1C` [Example 25, ethyl (2-(4-((4-fluoro-3-methylphenyl)carbamoyl)-1,3,5-trimethyl-1H-pyrrol-2-yl)-2-oxoacetyl)-L-serinate], the concentration giving a half-maximal response (EC50) in series [1] lay in the range of 0.05 to 0.499 µM. In series [2], this compound returned a CC50 at 7 days of over 30 µM.
For `CCOC(=O)[C@@H](CO)NC(=O)C(=O)c1c(C)c(C(=O)Nc2ccc(F)c(C)c2)c(C)n1C` [Example 26, ethyl (2-(4-((4-fluoro-3-methylphenyl)carbamoyl)-1,3,5-trimethyl-1H-pyrrol-2-yl)-2-oxoacetyl)-D-serinate] the same measures were under 0.05 µM and over 30 µM.
For `COC(=O)[C@@H](NC(=O)C(=O)c1c(C)c(C(=O)Nc2ccc(F)c(C)c2)c(C)n1C)[C@@H](C)O` [Example 27, methyl (2-(4-((4-fluoro-3-methylphenyl)carbamoyl)-1,3,5-trimethyl-1H-pyrrol-2-yl)-2-oxoacetyl)-L-threoninate] the same measures were over 1 µM and over 30 µM.
For `COC(=O)[C@H](NC(=O)C(=O)c1c(C)c(C(=O)Nc2ccc(F)c(C)c2)c(C)n1C)[C@H](C)O` [Example 28, methyl (2-(4-((4-fluoro-3-methylphenyl)carbamoyl)-1,3,5-trimethyl-1H-pyrrol-2-yl)-2-oxoacetyl)-D-threoninate] the same measures were under 0.05 µM and over 30 µM.
Turning to `Cc1cc(NC(=O)c2c(C)c(C(=O)C(=O)NC(C)(C)C(=O)O)n(C)c2C)ccc1F` [Example 29, 2-(2-(4-((4-fluoro-3-methylphenyl)carbamoyl)-1,3,5-trimethyl-1H-pyrrol-2-yl)-2-oxoacetamido)-2-methylpropanoic acid], the EC50 in series [1] was 0.5 to 1 µM. Further, the CC50 at 7 days in series [2] is over 30 µM.
For `Cc1cc(NC(=O)c2c(C)c(C(=O)C(=O)N[C@H](C(=O)O)C(C)(C)C)n(C)c2C)ccc1F` [Example 30, (S)-2-(22-(4-((4-fluoro-3-methylphenyl)carbamoyl)-1,3,5-trimethyl-1H-pyrrol-2-yl)-2-oxoacetamido)-3,3-dimethylbutanoic acid] the same measures were over 1 µM and over 30 µM.
On to `Cc1cc(NC(=O)c2c(C)c(C(=O)C(=O)N[C@@H](C(=O)O)C(C)(C)C)n(C)c2C)ccc1F` [Example 31, (R)-2-(2-(4-((4-fluoro-3-methylphenyl)carbamoyl)-1,3,5-trimethyl-1H-pyrrol-2-yl)-2-oxoacetamido)-3,3-dimethylbutanoic acid], for which, in series [1], the EC50 was 0.05 to 0.499 µM. Also, the CC50 at 7 days in series [2] was over 30 µM.
For `Cc1cc(NC(=O)c2c(C)c(C(=O)C(=O)N[C@@H](CO)C(=O)O)n(C)c2C)ccc1F` [Example 32, (2-(4-((4-fluoro-3-methylphenyl)carbamoyl)-1,3,5-trimethyl-1H-pyrrol-2-yl)-2-oxoacetyl)-L-serine], in that order: over 1 µM and over 30 µM.
Regarding `Cc1cc(NC(=O)c2c(C)c(C(=O)C(=O)N[C@H](CO)C(=O)O)n(C)c2C)ccc1F` [Example 33, (2-(4-((4-fluoro-3-methylphenyl)carbamoyl)-1,3,5-trimethyl-1H-pyrrol-2-yl)-2-oxoacetyl)-D-serine], the EC50 in series [1] is over 1 µM. The same compound returned a 50% cytotoxic concentration (CC50) at 7 days in series [2] of over 30 µM.
For `Cc1cc(NC(=O)c2c(C)c(C(=O)C(=O)N[C@H](C(=O)O)[C@@H](C)O)n(C)c2C)ccc1F` [Example 34, (2-(4-((4-fluoro-3-methylphenyl)carbamoyl)-1,3,5-trimethyl-1H-pyrrol-2-yl)-2-oxoacetyl)-L-threonine] the same measures were over 1 µM and over 30 µM.

The values are drawn from patent US20190375708A1 (VenatoRx Pharmaceuticals, Inc., priority 2018, published 2019).
